Tested on: HBsAg secretion, HepG2-Clone42 cells (Tet-inducible HBV-expressing, HBV ayw strain)
Test: HBsAg assay (HBsAg ELISA, secreted HBV sAg from HepG2-Clone42 cells)
Format: cell-based
Details: Hepatitis B virus, read-out: HBsAg (nM), EC50 = concentration at which HBsAg secretion was reduced 50% compared to DMSO control
Method: HepG2-Clone42, a Tet-inducible HBV-expressing cell line with a stably integrated 1.3 mer copy of the HBV ayw strain, was generated based on the Tet-inducible HepAD38 cell line with slight modifications. Ladner S K, et al., Antimicrobial Agents and Chemotherapy. 41(8):1715-1720 (1997). HepG2-Clone42 cells were cultured in DMEM/F-12+Glutamax™ (Life Technologies, Carlsbad, Calif., USA), supplemented with 10% fetal bovine serum (Life Technologies), G-418 (Corning, Manassas, Va., USA) at a final concentration of 0.5 mg/mL, and 5 μg/mL Doxycycline (Sigma, St. Louis, Mo., USA) and maintained in 5% CO2 at 37° C.
HepG2-Clone42 cells were seeded into black clear-bottom 96-well plates at a concentration of 6.0×10^4 cells/well. 24 hours post-seeding, the cells were treated with 200 μl/well of media containing five-fold serial dilutions of compounds in DMSO. DMSO alone was used as the no drug control. The final DMSO concentration in all wells was 0.5%.
The HBsAg ELISA kit (Alpha Diagnostic International, San Antonio, Tex., USE, Catalog #4110) was used to determine the level (semi-quantitative) of secreted HBV sAg. The HBSAg ELISA assay was performed following the manufacturer's protocol as described.
Step 1. Pipet 100 μL each of compound or DMSO treated samples into HBsAg ELISA plates. Seal plates and incubate at room temp for 60 minutes.
Step 2. Aspirate samples and wash three times with Wash Buffer. Dispense 100 μL of antibody-HRP conjugate to each well. Incubate at room temp for 30 minutes.
Step 3. Aspirate samples and wash three times with Wash Buffer. Add 100 μL of TMB Substrate to all wells and incubate 15 minutes at room temp.
Step 4. Dispense 100 μL of Stop Solution to each well. Measure absorbance of ELISA plate at 450 nm.
Dose-response curves were generated and the EC50 value was defined as the compound concentration at which HBsAg secretion was reduced 50% compared to the DMSO control.
EC50 values were determined as follows:
Determine the percent of HBsAg secretion inhibition. Calculate the percent inhibition on of HBsAg secretion inhibition using the following equation: […]
where XC is the absorbance signal from compound-treated well; MB is average absorbance signal (background signal) for column 12 (no cells+HBsAg ELISA sample buffer) and MD is average absorbance signal from DMSO-treated wells. Then calculate EC50 values by non-linear regression using a four parameter curve logistic equation.
The curve fit model employed is XLFit Dose Response One Site Model 204: y=(A+((B−A)/(1+(10^((C−x)*D))))) where A is the minimum y value, B is the maximum y value, C is the log EC50 value, and D is the slope factor. In the following table+≥100 nM; 100 nM>++≥1 nM; 1 nM>+++

Compared with CCOC(=O)c1cn2c(cc1=O)-c1c3cccc(OCCCOC)c3nn1CC2C(C)(C)C (racemic) [Example 2.1i, ethyl 6-(tert-butyl)-10-(3-methoxypropoxy)-2-oxo-6,7-dihydro-2H-pyrido[2′,1′:3,4]pyrazino[1,2-b]indazole-3-carboxylate], CCOCCCOc1cccc2c3n(nc12)CC(C(C)(C)C)n1cc(C(=O)O)c(=O)cc1-3 (racemic) [Example 2.14, 6-(tert-butyl)-10-(3-ethoxypropoxy)-2-oxo-6,7-dihydro-2H-pyrido[2′,1′:3,4]pyrazino[1,2-b]indazole-3-carboxylic Acid] is lower in EC50: 1 to 100 nM for the first, < 1 nM for the second.

CC[C@H](C)COc1cccc2c3n(nc12)CC(C(C)(C)C)n1cc(C(=O)O)c(=O)cc1-3 (mixture of isomers) [Example 2.6, 6-(tert-butyl)-10-((S)-2-methylbutoxy)-2-oxo-6,7-dihydro-2H-pyrido[2′,1′:3,4]pyrazino[1,2-b]indazole-3-carboxylic Acid] and CC(C)COc1cccc2c3n(nc12)CC(C(C)(C)C)n1cc(C(=O)O)c(=O)cc1-3 (racemic) [Example 2.16, 6-(tert-butyl)-10-isobutoxy-2-oxo-6,7-dihydro-2H-pyrido[2′,1′:3,4]pyrazino[1,2-b]indazole-3-carboxylic Acid] cannot be ordered by EC50: < 1 nM for the first, < 1 nM for the second.

CCC(C)Oc1cccc2c3n(nc12)CC(C(C)(C)C)n1cc(C(=O)O)c(=O)cc1-3 (racemic) [Example 2.7, 10-(sec-butoxy)-6-(tert-butyl)-2-oxo-6,7-dihydro-2H-pyrido[2′,1′:3,4]pyrazino[1,2-b]indazole-3-carboxylic acid] and CCCOc1cccc2c3n(nc12)CC(C(C)(C)C)n1cc(C(=O)O)c(=O)cc1-3 (racemic) [Example 2.11, 6-(tert-butyl)-2-oxo-10-propoxy-6,7-dihydro-2H-pyrido[2′,1′:3,4]pyrazino[1,2-b]indazole-3-carboxylic Acid] cannot be ordered by EC50: < 1 nM for the first, < 1 nM for the second.

First: CC(C)(C)C1Cn2nc3c(OCC4CCOC4)cccc3c2-c2cc(=O)c(C(=O)O)cn21 (racemic) [Example 2.8, 6-(tert-butyl)-2-oxo-10-((tetrahydrofuran-3-yl)methoxy)-6,7-dihydro-2H-pyrido[2′,1′:3,4]pyrazino[1,2-b]indazole-3-carboxylic Acid]
Second: CC(C)(C)C1Cn2nc3c(OCC4COCCO4)cccc3c2-c2cc(=O)c(C(=O)O)cn21 (racemic) [Example 2.22, 10-((1,4-dioxan-2-yl)methoxy)-6-(tert-butyl)-2-oxo-6,7-dihydro-2H-pyrido[2′,1′:3,4]pyrazino[1,2-b]indazole-3-carboxylic Acid]
The EC50 of the first is lower: < 1 nM for the first, 1 to 100 nM for the second. The first is the more potent here.

CC(C)(C)C1Cn2nc3c(OCCOC(F)(F)F)cccc3c2-c2cc(=O)c(C(=O)O)cn21 (racemic) [Example 2.9, 6-(tert-butyl)-2-oxo-10-(2-(trifluoromethoxy)ethoxy)-6,7-dihydro-2H-pyrido[2′,1′:3,4]pyrazino[1,2-b]indazole-3-carboxylic Acid] and CC(C)(C)C1Cn2nc3c(OCCCOC(F)(F)F)cccc3c2-c2cc(=O)c(C(=O)O)cn21 (racemic) [Example 2.19, 6-(tert-butyl)-2-oxo-10-(3-(trifluoromethoxy)propoxy)-6,7-dihydro-2H-pyrido[2′,1′:3,4]pyrazino[1,2-b]indazole-3-carboxylic Acid] cannot be ordered by EC50: < 1 nM for the first, < 1 nM for the second.

Going from CC(C)(C)C1Cn2nc3c(OCC(F)F)cccc3c2-c2cc(=O)c(C(=O)O)cn21 (racemic) [Example 2.10, 6-(tert-butyl)-10-(2,2-difluoroethoxy)-2-oxo-6,7-dihydro-2H-pyrido[2′,1′:3,4]pyrazino[1,2-b]indazole-3-carboxylic Acid] to CC(C)(C)C1Cn2nc3c(OCC(O)CO)cccc3c2-c2cc(=O)c(C(=O)O)cn21 (racemic) [Example 2.28, 6-(tert-butyl)-10-(2,3-dihydroxypropoxy)-2-oxo-6,7-dihydro-2H-pyrido[2′,1′:3,4]pyrazino[1,2-b]indazole-3-carboxylic Acid], the EC50 rises from < 1 nM to > 100 nM.

First: COCCOCCOc1cccc2c3n(nc12)CC(C(C)(C)C)n1cc(C(=O)O)c(=O)cc1-3 (racemic) [Example 2.12, 6-(tert-butyl)-10-(2-(2-methoxyethoxy)ethoxy)-2-oxo-6,7-dihydro-2H-pyrido[2′,1′:3,4]pyrazino[1,2-b]indazole-3-carboxylic Acid]
Second: COCCOCCCOc1cccc2c3n(nc12)CC(C(C)(C)C)n1cc(C(=O)O)c(=O)cc1-3 (racemic) [Example 2.21, 6-(tert-butyl)-10-(3-(2-methoxyethoxy)propoxy)-2-oxo-6,7-dihydro-2H-pyrido[2′,1′:3,4]pyrazino[1,2-b]indazole-3-carboxylic Acid]
The EC50 of the first is higher: 1 to 100 nM for the first, < 1 nM for the second.

COCC(COc1cccc2c3n(nc12)CC(C(C)(C)C)n1cc(C(=O)O)c(=O)cc1-3)OC (racemic) [Example 2.13, 6-(tert-butyl)-10-(2,3-dimethoxypropoxy)-2-oxo-6,7-dihydro-2H-pyrido[2′,1′:3,4]pyrazino[1,2-b]indazole-3-carboxylic Acid] and CC(C)(C)C1Cn2nc3c(OCCO)cccc3c2-c2cc(=O)c(C(=O)O)cn21 (racemic) [Example 2.18, 6-(tert-butyl)-10-(2-hydroxyethoxy)-2-oxo-6,7-dihydro-2H-pyrido[2′,1′:3,4]pyrazino[1,2-b]indazole-3-carboxylic Acid] fall in the same range of EC50: 1 to 100 nM for the first, 1 to 100 nM for the second.

CC(C)OCCOc1cccc2c3n(nc12)CC(C(C)(C)C)n1cc(C(=O)O)c(=O)cc1-3 (racemic) [Example 2.15, 6-(tert-butyl)-10-(2-isopropoxyethoxy)-2-oxo-6,7-dihydro-2H-pyrido[2′,1′:3,4]pyrazino[1,2-b]indazole-3-carboxylic Acid] and CC(C)(C)C1Cn2nc3c(OCCCO)cccc3c2-c2cc(=O)c(C(=O)O)cn21 (racemic) [Example 2.17, 6-(tert-butyl)-10-(3-hydroxypropoxy)-2-oxo-6,7-dihydro-2H-pyrido[2′,1′:3,4]pyrazino[1,2-b]indazole-3-carboxylic Acid] cannot be ordered by EC50: < 1 nM for the first, < 1 nM for the second.

CC(C)(C)C1Cn2nc3c(OCCN4CCCC4=O)cccc3c2-c2cc(=O)c(C(=O)O)cn21 (racemic) [Example 2.20, 6-(tert-butyl)-2-oxo-10-(2-(2-oxopyrrolidin-1-yl)ethoxy)-6,7-dihydro-2H-pyrido[2′,1′:3,4]pyrazino[1,2-b]indazole-3-carboxylic Acid] and CC(C)(C)C1Cn2nc3c(OCC(=O)O)cccc3c2-c2cc(=O)c(C(=O)O)cn21 (racemic) [Example 2.23, 6-(tert-butyl)-10-(carboxymethoxy)-2-oxo-6,7-dihydro-2H-pyrido[2′,1′:3,4]pyrazino[1,2-b]indazole-3-carboxylic Acid] fall in the same range of EC50: 1 to 100 nM for the first, 1 to 100 nM for the second.

Compared with CC(C)(C)C1Cn2nc3c(OCC4(CS(C)(=O)=O)CC4)cccc3c2-c2cc(=O)c(C(=O)O)cn21 (racemic) [Example 2.24, 6-(tert-butyl)-10-((1-((methylsulfonyl)methyl)cyclopropyl)methoxy)-2-oxo-6,7-dihydro-2H-pyrido[2′,1′:3,4]pyrazino[1,2-b]indazole-3-carboxylic Acid], CC(C)(C)C1Cn2nc3c(OC4COC4)cccc3c2-c2cc(=O)c(C(=O)O)cn21 (racemic) [Example 2.26, 6-(tert-butyl)-10-(oxetan-3-yloxy)-2-oxo-6,7-dihydro-2H-pyrido[2′,1′:3,4]pyrazino[1,2-b]indazole-3-carboxylic Acid] is lower in EC50: > 100 nM for the first, 1 to 100 nM for the second.

Going from CC(C)(C)C1Cn2nc3c(OC4CCNCC4)cccc3c2-c2cc(=O)c(C(=O)O)cn21 (racemic) [Example 2.27, 6-(tert-butyl)-2-oxo-10-(piperidin-4-yloxy)-6,7-dihydro-2H-pyrido[2′,1′:3,4]pyrazino[1,2-b]indazole-3-carboxylic Acid] to CC(C)(C)C1Cn2nc3c(OC4CCC4)cccc3c2-c2cc(=O)c(C(=O)O)cn21 (racemic) [Example 2.29, 6-(tert-butyl)-10-cyclobutoxy-2-oxo-6,7-dihydro-2H-pyrido[2′,1′:3,4]pyrazino[1,2-b]indazole-3-carboxylic Acid], the EC50 falls from > 100 nM to < 1 nM.

Reference: patent US10975078B2, “Fused indazole pyridone compounds as antivirals” (priority 2017, dated 2021)
